In US9975853B2, “Tetrahydroisoquinolinone derivatives and their use in the inhibition of the HSP70 protein” (Julius-Maximilians-Universitaet Wuerzburg, priority 2014, dated 2018) one finds melting point and EC50 data, which are given here for 24 molecules.

What is called melting point is the temperature of the solid-liquid transition. The EC50 is the concentration needed to bring the measured effect to its halfway point.

Bounds are passed on as bounds.

Test system in the first data set: not given
Assay: not given
Conditions: not given
`O=C(O)[C@@H]1c2ccccc2C(=O)N(c2ccc(F)cc2)[C@H]1c1ccc(F)cc1` (relative stereo) [trans-5e, trans-2,3-Bis(4-fluorophenyl)-1-oxo-1,2,3,4-tetrahydroisoquinoline-4-carboxylic acid] gave a melting point of 116 to 118 °C.
Same read-out and setting: next, `O=C(O)[C@@H]1c2ccccc2C(=O)N(c2ccc(Cl)cc2)[C@H]1c1ccc(Cl)cc1` (relative stereo) [trans-5f, trans-2,3-Bis(4-chlorophenyl)-1-oxo-1,2,3,4-tetrahydroisoquinoline-4-carboxylic acid]: 116 to 127 °C; `COc1ccc([C@H]2[C@H](C(=O)O)c3ccccc3C(=O)N2c2ccc(Oc3ccccc3)cc2)cc1` (relative stereo) [trans-5h, trans-3-(4-Methoxyphenyl)-1-oxo-2-(4-phenoxyphenyl)-1,2,3,4-tetrahydroisoquinoline-4-carboxylic acid]: 109 to 115 °C.

The next data set concerns INA-6. The experiment in a line: Cell viability assay (annexin V-FITC/propidium iodide, flow cytometry) in INA-6 multiple myeloma cells. It is filed as cell-based, human. To be noted: Homo sapiens, INA-6, 72 h, INA-6 multiple myeloma cells, 72 hours of treatment, viable cell fraction; mean of at least three determinations; read-out: INA-6 EC50(±sdv). How it is done:
The effect of pharmacological Hsp70 inhibition on cell viability was analyzed after 72 hours of treatment in both non-malignant (mononuclear cells from the peripheral blood) and malignant lymphocytes (multiple myeloma cells). The mononuclear cells were separated from the peripheral blood of healthy donors by Ficoll-Hypaque density gradient centrifugation. The human cell line INA-6 represents a well-established model for multiple myeloma. The percentage of viable and apoptotic cell fractions was assessed using an annexin V-FITC/propidium iodide (PI) staining kit (Bender MedSystems, Vienna, Austria) according to manufacturer's instructions. In brief, cells were washed in PBS, incubated for 10 min in 100 ml binding buffer (10 mM HEPES/NaOH, pH 7.4, 140 mM NaCl, 2.5 mM CaCl2) containing 2.5 ml annexin V-FITC mix and 1 mg/ml propidium iodide (PI), subsequently diluted with 100 ml binding buffer and analyzed by flow cytometry (FACSCalibur/CELLQuest; Becton Dickinson, Heidelberg, Germany). Whereas viable cells are negative for both, annexin V-FITC and PI, early apoptotic cells show a positive annexin V-FITC staining, and cells in a late apoptotic stage which lose their membrane integrity additionally incorporate DNA-binding PI. To establish kill curves, concentrations of the tested compounds were titrated, and the measured viable cell fractions were further analyzed using the Prism Calculation Software (GraphPad Software Inc., La Jolla, USA).
In FIG. 2A Western blot analyses of caspases 9 and 3, and the caspase substrate PARP (upper panel), and viability analyses (lower panel) of INA-6 MM cells upon treatment with trans-7b for 24 hours are shown. INA-6 cells were either incubated with DMSO (as a solvent control) or with 0.6 μM of trans-7b, and additionally incubated either with DMSO or the pan-caspase inhibitor Z-VAD-FMK prior to analyses by Western or viability assessment (without Z-VAD-FMK co-treatment) by Annexin V/propidum iodide double staining. For Western analyses INA-6 cell pellets were dissolved in lysis buffer (20 mM HEPES (pH 7.9), 350 mM NaCl, 1 mM MgCl2, 0.5 mM EDTA, 0.1 mM EGTA, 1% NP40, 0.5 mM dithiothreiol (DTT), 1 mM Na3VO4, 0.1 mM PMSF and 1 μg/ml aprotinin). Lysates were cleared by centrifugation, measured by quantitative protein assay (Bio-Rad, München, Germany) and subjected to SDS gel electrophoresis. Proteins were transferred onto nitrocellulose membranes (Schleicher & Schuell, Dassel, Germany), incubated with antibodies specific for caspase 9, caspase 3 or PARP (Cell Signaling Technology, Frankfurt a.Main, Germany) according to standard procedures and visualized with secondary anti-rabbit horseradish peroxidase (HRP)-conjugated antibodies using an enhanced chemoluminescence detection system (ECL, Amersham, Freiburg, Germany). […] Annexin V/propidium iodide (PI) staining was performed using a fluorescein isothiocyanate (FITC) conjugated recombinant human annexin/propidium iodide kit (BenderMedSystems, Vienna, Austria) according to the manufacturer's instructions. INA-6 cells were washed in PBS, incubated for 15 minutes in 100 ml binding buffer (10 mM HEPES/NaOH, pH 7.4, 140 mM NaCl, 2.5 mM CaCl2) containing 2.5 mL annexin V-FITC mix and 1 mg/ml PI and analyzed by flow cytometry (FACSCalibur/CELLQuest; Becton Dickinson, Heidelberg, Germany). Whereas early apoptosis is characterized by positive annexin V-FITC staining reaction, cells in a late apoptotic stage lose their membrane integrity and additionally incorporate PI. Thus, the fraction of viable cells remains negative for both annexin V-FITC and PI. […] Based on the above described experiments also viability analyses of INA-6 in comparison with non-malignant PBMCs were performed choosing a longer incubation time (72 hours) as shown in FIG. 2B or C. Raw data of three independent experiments have been calculated to establish means, standard deviation and dose-effect curves of trans-7b.
As to `COc1ccc([C@H]2[C@H](C(=O)O)c3ccccc3C(=O)N2c2ccc(OC)cc2)cc1` (relative stereo) [cis-6d, Sodium trans-2,3-bis(4-methoxyphenyl)-1-oxo-1,2,3,4-tetrahydroisoquinoline-4-carboxylate], the EC50 is over 100000 nM.
In the case of `COc1ccc([C@H]2[C@@H](C(=O)O)c3ccccc3C(=O)N2c2ccc(OC)cc2)cc1` (relative stereo) [trans-6d, Sodium cis-2,3-bis(4-methoxyphenyl)-1-oxo-1,2,3,4-tetrahydroisoquinoline-4-carboxylate], the EC50 is 7900 nM.
Regarding `Cc1cccc(NC(=O)C2c3ccccc3C(=O)N(c3ccccc3)C2c2ccccc2)n1` (stereo not drawn) [trans-7a, trans-N-(6-Methylpyridin-2-yl)-1-oxo-2,3-diphenyl-1,2,3,4-tetrahydroisoquinoline-4-carboxamide], the EC50 is 2300 nM.
Still for that read-out and setting: for `COc1ccc(C2C(C(=O)Nc3cccc(C)n3)c3ccccc3C(=O)N2c2ccc(OC)cc2)cc1` (stereo not drawn) [trans-7d, trans-2,3-Bis(4-methoxyphenyl)-N-(6-methylpyridin-2-yl)-1-oxo-1,2,3,4-tetrahydroisoquinoline-4-carboxamide] the value was 680 nM; for `COc1ccc(C2C(C(=O)Nc3ccccn3)c3ccccc3C(=O)N2c2ccc(OC)cc2)cc1` (stereo not drawn) [trans-7f, trans-2,3-Bis(4-methoxyphenyl)-1-oxo-N-(pyridin-2-yl)-1,2,3,4-tetrahydroisoquinoline-4-carboxamide], 530 nM; for `CNC(=O)C1c2ccccc2C(=O)N(c2ccc(OC)cc2)C1c1ccc(OC)cc1` (stereo not drawn) [trans-7g, trans-2,3-Bis(4-methoxyphenyl)-N-methyl-1-oxo-1,2,3,4-tetrahydroisoquinoline-4-carboxamide], 7100 nM.
Same read-out and setting: for `COc1ccc(C2C(C(=O)N(C)C)c3ccccc3C(=O)N2c2ccc(OC)cc2)cc1` (stereo not drawn) [trans-7h, trans-2,3-Bis(4-methoxyphenyl)-N,N-dimethyl-1-oxo-1,2,3,4-tetrahydroisoquinoline-4-carboxamide] the value was over 100000 nM.
With `COc1ccc(C2C(C(=O)Nc3cccc4c3CCCC4)c3ccccc3C(=O)N2c2ccc(OC)cc2)cc1` (stereo not drawn) [trans-7i, trans-2,3-Bis(4-methoxyphenyl)-1-oxo-N-(5,6,7,8-tetrahydronaphthalen-1-yl)-1,2,3,4-tetrahydroisoquinoline-4-carboxamide], the EC50 was over 100000 nM.
Consider `COc1ccc(C2C(C(=O)Nc3cc(C)cc(C)c3)c3ccccc3C(=O)N2c2ccc(OC)cc2)cc1` (stereo not drawn) [trans-7j, trans-N-(3,5-Dimethylphenyl)-2,3-bis(4-methoxyphenyl)-1-oxo-1,2,3,4-tetrahydroisoquinoline-4-carboxamide], for which the EC50 is 950 nM.
Still for that read-out and setting: next, `Cc1cccc(NC(=O)C2c3ccccc3C(=O)N(c3ccc(F)cc3)C2c2ccc(F)cc2)n1` (stereo not drawn) [trans-7k, trans-2,3-Bis(4-fluorophenyl)-N-(6-methylpyridin-2-yl)-1-oxo-1,2,3,4-tetrahydroisoquinoline-4-carboxamide]: 6400 nM; `Cc1cccc(NC(=O)C2c3ccccc3C(=O)N(c3ccc(Cl)cc3)C2c2ccc(Cl)cc2)n1` (stereo not drawn) [trans-7l, trans-2,3-Bis(4-chlorophenyl)-N-(6-methylpyridin-2-yl)-1-oxo-1,2,3,4-tetrahydroisoquinoline-4-carboxamide]: 2900 nM.
On the same count and under the same terms, next, `Cc1cc(C)cc(C2C(C(=O)Nc3cccc(C)n3)c3ccccc3C(=O)N2c2cc(C)cc(C)c2)c1` (stereo not drawn) [trans-7m, trans-2,3-Bis(3,5-dimethylphenyl)-N-(6-methylpyridin-2-yl)-1-oxo-1,2,3,4-tetrahydroisoquinoline-4-carboxamide]: 43000 nM; `COc1ccc(C2C(C(=O)Nc3cccc(C)n3)c3ccccc3C(=O)N2c2ccc(Oc3ccccc3)cc2)cc1` (stereo not drawn) [trans-7n, trans-3-(4-Methoxyphenyl)-N-(6-methylpyridin-2-yl)-1-oxo-2-(4-phenoxyphenyl)-1,2,3,4-tetrahydroisoquinoline-4-carboxamide]: over 100000 nM.
In the case of `Cc1cccc(NC(=O)C2c3ccccc3C(=O)N(c3ccc(O)cc3)C2c2ccc(O)cc2)n1` (stereo not drawn) [trans-7o, trans-2,3-Bis(4-hydroxyphenyl)-N-(6-methylpyridin-2-yl)-1-oxo-1,2,3,4-tetrahydroisoquinoline-4-carboxamide], the EC50 is 30000 nM.
For `COc1ccc(C2C(C(=O)Nc3ncccn3)c3ccccc3C(=O)N2c2ccccc2)cc1` (stereo not drawn) [trans-7p, trans-3-(4-Methoxyphenyl)-1-oxo-2-phenyl-N-(pyrimidin-2-yl)-1,2,3,4-tetrahydroisoquinoline-4-carboxamide], the EC50 is 200 nM.
As for `COc1ccc(C2C(C(=O)Nc3cccnc3)c3ccccc3C(=O)N2c2ccccc2)cc1` (stereo not drawn) [trans-7q, trans-3-(4-Methoxyphenyl)-1-oxo-2-phenyl-N-(pyridin-3-yl)-1,2,3,4-tetrahydroisoquinoline-4-carboxamide], the EC50 was 570 nM.
Take `COc1ccc(C2C(C(=O)Nc3cc(C)cc(C)n3)c3ccccc3C(=O)N2c2ccccc2)cc1` (stereo not drawn) [trans-7r, trans-N-(4,6-Dimethylpyridin-2-yl)-3-(4-methoxyphenyl)-1-oxo-2-phenyl-1,2,3,4-tetrahydroisoquinoline-4-carboxamide]: the EC50 worked out at 340 nM.

The same data set, now with this note: Homo sapiens, INA-6, 72 h, read-out: INA-6 EC50(±sdv).
Take `COc1ccc(N2C(=O)c3ccccc3[C@H](C(=O)O)[C@@H]2c2ccccc2)cc1` (relative stereo) [cis-6c, Sodium cis-2-(4-methoxyphenyl)-1-oxo-3-phenyl-1,2,3,4-tetrahydroisoquinoline-4-carboxylate]: the EC50 is over 100000 nM.
The same measure, in the same setting: next, `COc1ccc([C@H]2[C@H](C(=O)O)c3ccccc3C(=O)N2c2ccccc2)cc1` (relative stereo) [trans-6b, Sodium trans-3-(4-methoxyphenyl)-1-oxo-2-phenyl-1,2,3,4-tetrahydroisoquinoline-4-carboxylate]: 2000 nM; `COc1ccc(N2C(=O)c3ccccc3[C@@H](C(=O)O)[C@@H]2c2ccccc2)cc1` (relative stereo) [trans-6c, Sodium trans-2-(4-methoxyphenyl)-1-oxo-3-phenyl-1,2,3,4-tetrahydroisoquinoline-4-carboxylate]: 64000 nM; `COc1ccc(C2C(C(=O)Nc3cccc(C)c3)c3ccccc3C(=O)N2c2ccc(OC)cc2)cc1` (stereo not drawn) [trans-7e, trans-2,3-Bis(4-methoxyphenyl)-1-oxo-N-(m-tolyl)-1,2,3,4-tetrahydroisoquinoline-4-carboxamide]: 880 nM.
